A short description of the assay: injection of moxifloxacin antibiotic solution into the anterior segment of the eye during surgery to prevent endophthalmitis. The assay is classed as in vivo. How it is done:
Further details regarding the structure, preparation, and physical properties of moxifloxacin are provided in U.S. Pat. Nos. 4,990,517 and 5,607,942, and German application DE19937116, all of which are incorporated herein by reference. In one embodiment, the antibiotic solution may comprise […] of cyanocobalamin, or an amount sufficient to tint or color the resulting antibiotic solution. The antibiotic solution may further comprise any suitable carrier fluid (e.g., liquid diluents such as water, ethyl alcohol, or propylene glycol), so long as the resulting solution has osmotic values that are compatible with the aqueous humor of the eye and ophthalmic tissues. In one embodiment, the antibiotic solution is prepared and stored in a single-dose vial, without the need for preservatives. This allows the surgeon to provide an accurate concentration in sterile environments. Further, due to the antibiotic solution comprising cyanocobalamin, the resulting antibiotic solution is red in color. This provides a visual enhancement to the surgeon when injecting into the eye. For example, a surgeon would inject around 0.3 milliliters of the antibiotic solution (e.g., solution comprising moxifloxacin and cyanocobalamin) into the anterior segment of the eye during the intraoperative portion of cataract surgery. […]

Consider `COc1c(N2C[C@@H]3CCCN[C@@H]3C2)c(F)cc2c(=O)c(C(=O)O)cn(C3CC3)c12` [moxifloxacin], for which the “effectiveness (preliminary results)” value (200 micrograms to 600 micrograms of moxifloxacin injected into the eye) is recorded as “effective”. Also, for the setting “moxifloxacin injected into the anterior segment of the eye”, the risk of endophthalmitis entry was “significantly reduced or eliminated altogether”.
